“Also recorded” adds a separate entry of the source. Like-named read-outs stand apart in the source and are kept apart here.

Assay [1] deals with Spontaneously Hypertensive rat (SHR) pups. The experiment in a line: 5-trial inhibitory avoidance in SHR rat pups. It is filed as in vivo. Particulars: for Level of Efficacy in SHR 5-trial Inhibitory Avoidance Model: applicant's Examples 1 and 2. How it is done: Methods: In this behavioral paradigm, hypothesized to test aspects of both attention and impulsivity, vehicle-treated Spontaneously Hypertensive rat (SHR) pups show an impaired ability to withhold a natural response to transfer from the light into a preferred dark chamber that is paired with a mild footshock. In this study, SHR pups at postnatal day 22-23 were dosed with either vehicle or atomoxetine (0.001, 0.01, 0.1, 1.0 and 6.0 mg/kg, s.c.) 30 min prior to being tested. They were then placed into the brightly illuminated compartment of a two compartment chamber (Hamilton Kinder, San Diego, Calif.) with a retractable door between the light and dark compartments opened. After animals transferred through the open door to the dark compartment, the door closed automatically and a 0.1 mA scrambled current was applied to a 31 bar stainless steel grid floor for one second. At this point, the pup was removed and returned to its home cage and littermates for a one minute inter trial interval, and the transfer latency was noted. The same pup was returned to the bright compartment, and the process repeated for five trials. Latency to enter the dark compartment was used to evaluate learning.
Methods: In this behavioral paradigm, hypothesized to test aspects of both attention and impulsivity, vehicle-treated SHR rat pups show an impaired ability to withhold a natural response to transfer from the light into a preferred dark chamber that is paired with a mild footshock. In this study, SHR pups at postnatal day 21-25 were dosed with either vehicle or the alpha7 agonist, compound 1,2-methyl-5-[6-phenylpyridazin-3-yl]octahydropyrrolo[3,4-c]pyrrole, (0.01, 0.1, and 1.0 umol/kg, s.c.) 30 min prior to being tested. They were then placed into the brightly illuminated compartment of a two compartment chamber (Hamilton Kinder, San Diego, Calif.) with a retractable door between the light and dark compartments opened. After animals transferred through the open door to the dark compartment, the door closed automatically and a 0.1 mA scrambled current was applied to a 31 bar stainless steel grid floor for one second. At this point, the pup was removed and returned to its home cage and littermates for a one minute inter trial interval, and the transfer latency was noted. The same pup was returned to the bright compartment, and the process repeated for five trials. Latency to enter the dark compartment was used to evaluate learning. Methods for evaluating 2-methyl-5-[6-phenylpyridazin-3-yl]octahydropyrrolo[3,4-c]pyrrole also are described in Tietje, Karin R., et al., Preclinical Characterization of A-582941: A Novel α7 Neuronal Nicotinic Receptor Agonist with Broad Spectrum Cognition-Enhancing Properties, CNS Neuroscience & Therapeutics 14 (2008) 65-82 (2008).
The 5-trial inhibitory avoidance assay in spontaneously hypertensive (SHR) rat pups has been proposed as a model with predictive validity for compounds showing efficacy in attention disorders such as ADHD.

The test system is the same in assay [2]. Particulars: from literature (Fox et al. 2002, 2005; Decker et al. 2008), cited from earlier work.
The next assay concerns rats. Particulars: rats performing an operant visual signal detection task; Rezvani et al. 2008; cited from earlier work.

Regarding `CN1CC2CN(c3ccc(-c4ccccc4)nn3)CC2C1` (stereo not drawn) [Compound 1, 2-methyl-5-[6-phenylpyridazin-3-yl]octahydropyrrolo[3,4-c]pyrrole], the “effect on transfer latency” value in assay [1] (SHR pups postnatal day 21-25, 0.01, 0.1 and 1.0 umol/kg s.c., 30 min prior to testing, Mann Whitney p<0.05, FIG. 2) is recorded as “significant, dose dependent effect”. Besides, the transfer latency entry in assay [1] (SHR pups postnatal day 21-25, dose of 1 μmol/kg s.c., FIG. 2) is on record as “significantly increasing transfer latency”. Also, the “Level of Efficacy in SHR 5-trial Inhibitory Avoidance Model” value in assay [1] was “full efficacy and Full”.
For `C[C@@H]1CCCN1CCc1cc2cc(-c3ccc(C#N)cc3)ccc2o1` [ABT-239], in assay [2], the “Level of Efficacy in SHR 5-trial Inhibitory Avoidance Model” value was “full efficacy and Full”.
Regarding `CNCC[C@@H](Oc1ccccc1C)c1ccccc1` [Atomoxetine, atomoxetine], the “transfer latency compared to vehicle treated animals” value in assay [1] (SHR pups postnatal day 22-23, 0.001, 0.01, 0.1, 1.0 and 6.0 mg/kg s.c., 30 min prior to testing, FIG. 1) is on record as “did not alter transfer latency”. Moreover, the “Level of Efficacy in SHR 5-trial Inhibitory Avoidance Model” value in assay [1] is “None”; in assay [1] (listed as atomoxetine), “did not show efficacy; also recorded: not efficacious”.
In the case of `Cl.O=C(N[C@@H]1CN2CCC1CC2)c1n[nH]c2ccccc12` [R3487/MEM3454], the visual sustained attention result in the assay on rats is recorded as “improve visual sustained attention”.
For `Cc1cc([C@@H]2CCCN2C)on1` [ABT-418], the “Level of Efficacy in SHR 5-trial Inhibitory Avoidance Model” value in assay [2] was “full efficacy and Full”.
For the molecule `COC(=O)C(c1ccccc1)C1CCCCN1` (stereo not drawn) [Methylphenidate, methylphenidate], the figures for the “Level of Efficacy in SHR 5-trial Inhibitory Avoidance Model” value in assay [2] and in assay [2] (listed as methylphenidate) were “Full” and “fully efficacious”, respectively.
As for `Cc1ncccc1OC[C@@H]1CCCN1` [ABT-089], the “Level of Efficacy in SHR 5-trial Inhibitory Avoidance Model” value in assay [2] was “full efficacy and Full”.

The record behind these values is patent US20090221648A1, “COMPOSITIONS FOR TREATMENT OF COGNITIVE DISORDERS” (priority 2007, published 2009).
